Results: patent publication US7423158B2, “Amino-5-[4-(difluoromethoxy)phenyl]-5-phenylimidazolone compounds for the inhibition of β-secretase” (Wyeth, priority 2005, dated 2008)

Structure (SMILES) | melting point
CN1C(=O)C(c2ccc(OC(F)F)cc2)(c2cccc(CCCCO)c2)N=C1N (centres unmarked) [Example 21, 2-Amino-5-[4-(difluoromethoxy)phenyl]-5-[3-(4-hydroxybutyl)phenyl]-3-methyl-3,5-dihydro-4H-imidazol-4-one] | 63 to 66 °C
CN1C(=O)C(c2ccc(OC(F)F)cc2)(c2cccc(C3CC(O)C3)c2)N=C1N (centres unmarked) [Example 89, 2-Amino-5-[4-(difluoromethoxy)phenyl]-5-[3-(3-hydroxycyclobutyl)phenyl]-3-methyl-3,5-dihydro-4H-imidazol-4-one] | 186 to 190 °C
CN1C(=O)C(c2ccc(OC(F)F)cc2)(c2cccc(C3CC(=O)C3)c2)N=C1N (centres unmarked) [Example 88, 2-Amino-5-[4-(difluoromethoxy)phenyl]-3-methyl-5-[3-(3-oxocyclobutyl)phenyl]-3,5-dihydro-4H-imidazol-4-one] | 68 to 70 °C
C=CCCc1cc(C2(c3ccc(OC(F)F)cc3)N=C(N)N(C)C2=O)ccc1F (centres unmarked) [Example 84, 2-Amino-5-(3-but-3-en-1-yl-4fluorophenyl)-5-[4-(difluoromethoxy)phenyl]-3-methyl-3,5-dihydro-4H-imidazol-4-one] | 55 to 58 °C
CN1C(=O)C(c2ccc(OC(F)F)cc2)(c2cccc(COCC(F)(F)C(F)F)c2)N=C1N (centres unmarked) [Example 39, 2-amino-5-[4-(difluoromethoxy)phenyl]-3-methyl-5-{3-[(2,2,3,3-tetrafluoropropoxy)methyl]phenyl}-3,5-dihydro-4H-imidazol-4-one] | 48 to 50 °C
CCCCOCc1cccc(C2(c3ccc(OC(F)F)cc3)N=C(N)N(C)C2=O)c1 (centres unmarked) [Example 33, 2-amino-5-[3-(butoxymethyl)phenyl]-5-[4-(difluoromethoxy)phenyl]-3-methyl-3,5-dihydro-4H-imidazol-4-one] | 37 to 39 °C
CN1C(=O)C(c2ccc(OC(F)F)cc2)(c2cccc(COC(CF)CF)c2)N=C1N (centres unmarked) [Example 37, 2-amino-5-[4-(difluoromethoxy)phenyl]-5-(3-{[2-fluoro-1-(fluoromethyl)ethoxy]methyl}phenyl)-3-methyl-3,5-dihydro-4H-imidazol-4-one] | 46 to 50 °C
CN1C(=O)C(c2ccc(OC(F)F)cc2)(c2cccc(CCCCC#N)c2)N=C1N (centres unmarked) [Example 14, 5-(3-{2-Amino-4-[4-(difluoromethoxy)phenyl]-1-methyl-5-oxo-4,5-dihydro-1H-imidazol-4-yl}phenyl)pentanenitrile] | 65 °C
COCCCc1cccc(C2(c3ccc(OC(F)F)cc3)N=C(N)N(C)C2=O)c1 (centres unmarked) [Example 24, 2-Amino-5-[4-(difluoromethoxy)phenyl]-5-[3-(3-methoxypropyl)phenyl]-3-methyl-3,5-dihydro-4H-imidazol-4-one] | 48 to 50 °C
CCOCc1cccc(C2(c3ccc(OC(F)F)cc3)N=C(N)N(C)C2=O)c1 (centres unmarked) [Example 35, 2-amino-5-[4-(difluoromethoxy)phenyl]-5-[3-(ethoxymethyl)phenyl]-3-methyl-3,5-dihydro-4H-imidazol-4-one] | 45 to 48 °C
CN1C(=O)C(c2ccc(OC(F)F)cc2)(c2cccc(COCCC(F)(F)F)c2)N=C1N (centres unmarked) [Example 31, 2-amino-5-[4-(difluoromethoxy)phenyl]-3-methyl-5-{3-[(3,3,3-trifluoropropoxy)methyl]phenyl}-3,5-dihydro-4H-imidazol-4-one] | 46 to 48 °C
C=C(F)CCc1cccc(C2(c3ccc(OC(F)F)cc3)N=C(N)N(C)C2=O)c1 (centres unmarked) [Example 17, 2-Amino-5-[4-(difluoromethoxy)phenyl]-5-[3-(3-fluorobut-3-en-1-yl)phenyl]-3-methyl-3,5-dihydro-4H-imidazol-4-one] | 58 to 60 °C
COCCCCc1cccc(C2(c3ccc(OC(F)F)cc3)N=C(N)N(C)C2=O)c1 (centres unmarked) [Example 28, 2-amino-5-[4-(difluoromethoxy)phenyl]-5-[3-(4-methoxybutyl)phenyl]-3-methyl-3,5-dihydro-4H-imidazol-4-one] | 36 to 39 °C
CN1C(=O)C(c2ccc(OC(F)F)cc2)(c2cccc(OCCCCF)c2)N=C1N (centres unmarked) [Example 64, 2-amino-5-[4-(difluoromethoxy)phenyl]-5-[3-(4-fluorobutoxy)phenyl]-3-methyl-3,5-dihydro-4H-imidazol-4-one] | 139 to 140 °C
CN1C(=O)C(c2ccc(OC(F)F)cc2)(c2cccc(OCCCC(F)(F)F)c2)N=C1N (centres unmarked) [Example 62, 2-amino-5-[4-(difluoromethoxy)phenyl]-3-methyl-5-[3-(4,4,4-trifluorobutoxy)phenyl]-3,5-dihydro-4H-imidazol-4-one] | 82 to 85 °C
CN1C(=O)C(c2ccc(OC(F)F)cc2)(c2cccc(COCCF)c2)N=C1N (centres unmarked) [Example 30, 2-Amino-5-[4-(difluoromethoxy)phenyl]-5-{3-[(2-fluoroethoxy)methyl]phenyl}-3-methyl-3,5-dihydro-4H-imidazol-4-one] | 40 to 43 °C
CCCOCc1cccc(C2(c3ccc(OC(F)F)cc3)N=C(N)N(C)C2=O)c1 (centres unmarked) [Example 36, 2-amino-5-[4-(difluoromethoxy)phenyl]-3-methyl-5-[3-(propoxymethyl)phenyl]-3,5-dihydro-4H-imidazol-4-one] | 40 to 43 °C
CCCNC(=O)c1cccc(C2(c3ccc(OC(F)F)cc3)N=C(N)N(C)C2=O)c1 (centres unmarked) [Example 29, 3-{2-Amino-4-[4-(difluoromethoxy)phenyl]-1-methyl-5-oxo-4,5-dihydro-1H-imidazol-4-yl}-N-propylbenzamide] | 93 to 96 °C
CCOC(=O)C=C1CC(c2cccc(C3(c4ccc(OC(F)F)cc4)N=C(N)N(C)C3=O)c2)C1 (centres unmarked) [Example 90, Ethyl [3-(3-{2-Amino-4-[4-(difluoromethoxy)phenyl]-1-methyl-5-oxo-4,5-dihydro-1H-imidazol-4-yl}phenyl)cyclobutylidene]acetate] | 78 to 80 °C
COC(=O)CC1CC(c2cccc(C3(c4ccc(OC(F)F)cc4)N=C(N)N(C)C3=O)c2)C1 (centres unmarked) [Example 92, methyl [3-(3-{2-amino-4-[4-(difluoromethoxy)phenyl]-1-methyl-5-oxo-4,5-dihydro-1H-imidazol-4-yl}phenyl)cyclobutyl]acetate] | 68 to 70 °C
CN1C(=O)C(c2ccc(OC(F)F)cc2)(c2cccc(C3CC(=O)C3(C)C)c2)N=C1N (centres unmarked) [Example 87, 2-Amino-5-[4-(difluoromethoxy)phenyl]-5-[3-(2,2-dimethyl-3-oxocyclobutyl)phenyl]-3-methyl-3,5-dihydro-4H-imidazol-4-one] | 172 to 174 °C
COCc1cccc(C2(c3ccc(OC(F)F)cc3)N=C(N)N(C)C2=O)c1 (centres unmarked) [Example 32, 2-amino-5-[4-(difluoromethoxy)phenyl]-5-[3-(methoxymethyl)phenyl]-3-methyl-3,5-dihydro-4H-imidazol-4-one] | 70 to 72 °C
CN1C(=O)C(c2ccc(OC(F)F)cc2)(c2cccc(COCC3CC3)c2)N=C1N (centres unmarked) [Example 34, 2-amino-5-{3-[(cyclopropylmethoxy)methyl]phenyl}-5-[4-(difluoromethoxy)phenyl]-3-methyl-3,5-dihydro-4H-imidazol-4-one] | 47 to 50 °C
CN1C(=O)C(c2ccc(OC(F)F)cc2)(c2cccc(CCCC(F)F)c2)N=C1N (centres unmarked) [Example 19, 2-Amino-5-[3-(4,4-difluorobutyl)phenyl]-5-[4-(difluoromethoxy)phenyl]-3-methyl-3,5-dihydro-4H-imidazol-4-one] | 54 to 57 °C
CN1C(=O)C(c2ccc(OC(F)F)cc2)(c2cccc(OCCCF)c2)N=C1N (centres unmarked) [Example 59, 2-Amino-5-[4-(difluoromethoxy)phenyl]-5-[3-(3-fluoropropox-1-yl)phenyl]-3-methyl-3,5-dihydro-4H-imidazol-4-one] | 161 to 162 °C
CN1C(=O)C(c2ccc(OC(F)F)cc2)(c2cccc(CCF)c2)N=C1N (centres unmarked) [Example 55, 2-Amino-5-[4-(difluoromethoxy)phenyl]-5-[3-(2-fluoroethyl)phenyl]-3-methyl-3,5-dihydro-4H-imidazol-4-one] | 60 to 63 °C
